Assay results from US20120225062A1 (priority 2011, published 2012).

Columns and labels:
Pim 1 = Pim 1 (Homo sapiens, UniProt P11309); assay: Pim 1 AlphaScreen assay (high ATP)
Pim 2 = Pim 2 (Homo sapiens, UniProt Q9P1W9); assay: Pim 2 AlphaScreen assay (high ATP)
Protocol: The activity of Pim 1, Pim 2, & Pim 3 is measured using a homogeneous bead based system quantifying the amount of phosphorylated peptide substrate resulting from kinase-catalyzed phosphoryl transfer to a peptide substrate. Compounds to be tested are dissolved in 100% DMSO and directly distributed to a white 384-well plate at 0.25 μl per well. […] This is followed by the addition of 5 μl/well of Pim 1, Pim 2 or Pim 3 kinase in assay buffer (concentrations described below). Final assay concentrations (described below) are in 2.5% DMSO. The reactions are performed for ˜2 hours, then stopped by the addition of 10 μl of 0.75 μg/ml anti-phospho Ser/Thr antibody (Cell Signaling), 10 μg/ml Protein A AlphaScreen beads (Perkin Elmer), and 10 μg/ml streptavidin coated AlphaScreen beads in stop/detection buffer (50 mM EDTA, 95 mM Tris, pH=7.5, 0.01% Tween-20). The stopped reactions are incubated overnight in the dark. The phosphorylated peptide is detected via an oxygen anion initiated chemiluminescence/fluorescence cascade using the Envision plate reader (Perkin Elmer).

Pim 3 = Pim 3 (Homo sapiens, UniProt Q86V86); assay: Pim 3 AlphaScreen assay (high ATP)
[1] = test system: KMS11 (human myeloma cell line); assay: Cell Proliferation Assay (CellTiter-Glo, 3 days); format: cell-based; details: KMS-11, 72 h, KMS11-luc cells
Method in brief: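 EC50 from CellTiter-Glo luminescence after 3-day, 37° C compound treatment of KMS11 cells seeded at 2000 per well in IMDM plus 10% FBS.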

Chain of Pim 2 (Q9P1W9 whole entry): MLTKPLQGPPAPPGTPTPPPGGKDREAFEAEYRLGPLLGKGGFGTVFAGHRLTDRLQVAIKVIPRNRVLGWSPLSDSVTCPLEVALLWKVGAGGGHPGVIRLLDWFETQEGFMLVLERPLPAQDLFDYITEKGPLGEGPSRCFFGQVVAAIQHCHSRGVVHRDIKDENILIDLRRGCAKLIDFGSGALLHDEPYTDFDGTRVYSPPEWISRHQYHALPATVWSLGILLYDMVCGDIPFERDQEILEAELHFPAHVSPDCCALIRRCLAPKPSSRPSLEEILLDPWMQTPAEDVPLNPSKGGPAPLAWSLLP
Chain of Pim 1 (P11309 whole entry): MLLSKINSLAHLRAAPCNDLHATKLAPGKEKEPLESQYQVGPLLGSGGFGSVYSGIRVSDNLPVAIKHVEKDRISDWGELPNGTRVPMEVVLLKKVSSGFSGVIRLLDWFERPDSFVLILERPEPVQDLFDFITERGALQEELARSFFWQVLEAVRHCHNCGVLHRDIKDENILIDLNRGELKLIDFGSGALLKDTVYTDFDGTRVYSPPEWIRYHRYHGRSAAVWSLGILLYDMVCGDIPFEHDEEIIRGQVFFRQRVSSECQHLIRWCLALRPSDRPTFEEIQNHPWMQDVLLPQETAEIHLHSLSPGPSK

Row | SMILES | IC50 (Pim 1) | IC50 (Pim 2) | IC50 (Pim 3) | EC50 [1]
1 | C[C@H]1CN(c2ccncc2NC(=O)c2ccc(F)c(-c3c(F)cc(S(C)(=O)=O)cc3F)n2)C[C@@H](N)[C@@H]1O [Example 16, N-(4-((3R,4R,5S)-3-amino-4-hydroxy-5-methylpiperidin-1-yl)pyridin-3-yl)-6-(2,6-difluoro-4-(methylsulfonyl)phenyl)-5-fluoropicolinamide] | 0.08 nM | 2.07 nM | 2.66 nM | 37 nM
2 | C[C@H]1C[C@@H](c2ccncc2NC(=O)c2ccc(F)c(-c3c(F)cc4c(c3F)OCC[C@]4(C)O)n2)C[C@@H](N)[C@@H]1O [Example 237, N-(4-((1R,3R,4R,5S)-3-amino-4-hydroxy-5-methylcyclohexyl)pyridin-3-yl)-6-((S)-6,8-difluoro-4-hydroxy-4-methylchroman-7-yl)-5-fluoropicolinamide] | 0.25 nM | 14.2 nM | 16 nM | 181 nM
3 | C[C@H]1C[C@@H](c2ccncc2NC(=O)c2ccc(F)c(-c3c(F)cc4c(c3F)OCC[C@@]4(C)O)n2)C[C@@H](N)[C@@H]1O [Example 238, N-(4-((1R,3R,4R,5S)-3-amino-4-hydroxy-5-methylcyclohexyl)pyridin-3-yl)-6-((R)-6,8-difluoro-4-hydroxy-4-methylchroman-7-yl)-5-fluoropicolinamide] | 0.04 nM | 3.15 nM | 1.36 nM | 55 nM
4 | C[C@H]1CN(c2ccncc2NC(=O)c2ccc(F)c(-c3c(F)cc(C4(O)COC4)cc3F)n2)C[C@@H](N)[C@@H]1O [Example 89, N-(4-((3R,4R,5S)-3-amino-4-hydroxy-5-methylpiperidin-1-yl)pyridin-3-yl)-6-(2,6-difluoro-4-(3-hydroxyoxetan-3-yl)phenyl)-5-fluoropicolinamide] | 0.01 nM | 0.67 nM | 0.26 nM | 21 nM
5 | C[C@@H]1C[C@H](N)C[C@H](c2ccncc2NC(=O)c2nc(-c3c(F)cc(C4(O)CCC4)cc3F)c(F)cc2N)C1 [Example 220, 3-amino-N-(4-((1R,3S,5S)-3-amino-5-methylcyclohexyl)pyridin-3-yl)-6-(2,6-difluoro-4-(1-hydroxycyclobutyl)phenyl)-5-fluoropicolinamide] | 0.01 nM | 0.64 nM | 0.14 nM | 8 nM
6 | C[C@@H]1C[C@H](N)C[C@H](c2ccncc2NC(=O)c2nc(-c3c(F)cc(C(C)(C)O)cc3F)c(F)cc2N)C1 [Example 100, 3-amino-N-(4-((1R,3S,5S)-3-amino-5-methylcyclohexyl)pyridin-3-yl)-6-(2,6-difluoro-4-(2-hydroxypropan-2-yl)phenyl)-5-fluoropicolinamide] | 0.01 nM | 0.53 nM | 0.13 nM | 12 nM
7 | C[C@@H]1C[C@H](N)C[C@H](c2ccncc2NC(=O)c2ccc(F)c(-c3c(F)cc([C@H]4CCOC4)cc3F)n2)C1 [Example 207, N-(4-((1R,3S,5S)-3-amino-5-methylcyclohexyl)pyridin-3-yl)-6-(2,6-difluoro-4-((R)-tetrahydrofuran-3-yl)phenyl)-5-fluoropicolinamide] | 0.01 nM | 1.23 nM | 0.13 nM | 96 nM
8 | C[C@@H]1C[C@H](N)C[C@H](c2ccncc2NC(=O)c2ccc(F)c(-c3c(F)cc(C4(O)CCC4)cc3F)n2)C1 [Example 61, N-(4-((1R,3S,5S)-3-amino-5-methylcyclohexyl)pyridin-3-yl)-6-(2,6-difluoro-4-(1-hydroxycyclobutyl)phenyl)-5-fluoropicolinamide] | 0.02 nM | 1 nM | 0.52 nM | 47 nM
9 | C[C@@H]1C[C@H](N)C[C@H](c2ccncc2NC(=O)c2ccc(F)c(-c3c(F)ccc(OC[C@@H](O)CO)c3F)n2)C1 [Example 10, N-(4-((1R,3S,5S)-3-amino-5-methylcyclohexyl)pyridin-3-yl)-6-(3-((S)-2,3-dihydroxypropoxy)-2,6-difluorophenyl)-5-fluoropicolinamide] | 0.03 nM | 4.96 nM | 0.95 nM | 126 nM
10 | Cc1noc(C)c1-c1cc(F)c(-c2nc(C(=O)Nc3cnccc3[C@@H]3C[C@H](C)C[C@H](N)C3)ccc2F)c(F)c1 [Example 174, N-(4-((1R,3S,5S)-3-amino-5-methylcyclohexyl)pyridin-3-yl)-6-(4-(3,5-dimethylisoxazol-4-yl)-2,6-difluorophenyl)-5-fluoropicolinamide] | 0.08 nM | 30 nM | 10.1 nM | 1020 nM
11 | C[C@H]1C[C@@H](c2ccncc2NC(=O)c2ccc(F)c(-c3c(F)cc(C4(F)COC4)cc3F)n2)C[C@@H](N)[C@H]1O [Example 137, N-(4-((1R,3R,4S,5S)-3-amino-4-hydroxy-5-methylcyclohexyl)pyridin-3-yl)-6-(2,6-difluoro-4-(3-fluorooxetan-3-yl)phenyl)-5-fluoropicolinamide] | 0.08 nM | 10.3 nM | 6.9 nM | 549 nM
12 | COCc1cc(F)c(-c2nc(C(=O)Nc3cnccc3N3C[C@@H](N)[C@H](O)[C@@H](C)C3)ccc2F)c(F)c1 [Example 38, N-(4-((3R,4R,5S)-3-amino-4-hydroxy-5-methylpiperidin-1-yl)pyridin-3-yl)-6-(2,6-difluoro-4-(methoxymethyl)phenyl)-5-fluoropicolinamide] | 0.03 nM | 1.35 nM | 0.47 nM | 10 nM
13 | C[C@H]1CN(c2ccncc2NC(=O)c2ccc(F)c(-c3c(F)cc([S@@+](C)[O-])cc3F)n2)C[C@@H](N)[C@@H]1O [Example 26, N-(4-((3R,4R,5S)-3-amino-4-hydroxy-5-methylpiperidin-1-yl)pyridin-3-yl)-6-(2,6-difluoro-4-((R)-methylsulfinyl)phenyl)-5-fluoropicolinamide] | 0.05 nM | 1.88 nM | 2.21 nM | 42 nM
14 | C[C@@H]1C[C@H](N)C[C@H](c2ccncc2NC(=O)c2ccc(F)c(-c3c(F)cc(OCCN4CCCC4=O)cc3F)n2)C1 [Example 132, N-(4-((1R,3S,5S)-3-amino-5-methylcyclohexyl)pyridin-3-yl)-6-(2,6-difluoro-4-(2-(2-oxopyrrolidin-1-yl)ethoxy)phenyl)-5-fluoropicolinamide] | 0.02 nM | 4.78 nM | 1.1 nM | 206 nM
15 | COCCOc1cc(F)c(-c2cccc(C(=O)Nc3cnccc3[C@@H]3C[C@H](C)C[C@H](N)C3)n2)c(F)c1 [Example 188, N-(4-((1R,3S,5S)-3-amino-5-methylcyclohexyl)pyridin-3-yl)-6-(2,6-difluoro-4-(2-methoxyethoxy)phenyl)picolinamide] | 0.07 nM | 3.96 nM | 1.96 nM | 478 nM
16 | C[C@@H]1C[C@H](N)C[C@H](c2ccncc2NC(=O)c2ccc(F)c(-c3c(F)cc(C(C)(C)C#N)cc3F)n2)C1 [Example 164, N-(4-((1R,3S,5S)-3-amino-5-methylcyclohexyl)pyridin-3-yl)-6-(4-(2-cyanopropan-2-yl)-2,6-difluorophenyl)-5-fluoropicolinamide] | 0.02 nM | 2.13 nM | 2.04 nM | 88 nM
17 | C[C@H]1C[C@@H](c2ccncc2NC(=O)c2ccc(F)c(-c3c(F)cc(C(C)(C)C#N)cc3F)n2)C[C@@H](N)[C@@H]1O [Example 165, N-(4-((1R,3R,4R,5S)-3-amino-4-hydroxy-5-methylcyclohexyl)pyridin-3-yl)-6-(4-(2-cyanopropan-2-yl)-2,6-difluorophenyl)-5-fluoropicolinamide] | 0.04 nM | 1.87 nM | 2.3 nM | 78 nM
18 | C[C@H]1C[C@@H](c2ccncc2NC(=O)c2ccc(F)c(-c3c(F)cc(O[C@@H]4CCCOC4)cc3F)n2)C[C@@H](N)[C@@H]1O [Example 78, N-(4-((1R,3R,4R,5S)-3-amino-4-hydroxy-5-methylcyclohexyl)pyridin-3-yl)-6-(2,6-difluoro-4-((R)-tetrahydro-2H-pyran-3-yloxy)phenyl)-5-fluoropicolinamide] | 0.02 nM | 1.23 nM | 0.56 nM | 22 nM
19 | N#CC1(c2cc(F)c(-c3nc(C(=O)Nc4cnccc4[C@@H]4CCC[C@H](N)C4)ccc3F)c(F)c2)CCOCC1 [Example 172, N-(4-((1R,3S)-3-aminocyclohexyl)pyridin-3-yl)-6-(4-(4-cyanotetrahydro-2H-pyran-4-yl)-2,6-difluorophenyl)-5-fluoropicolinamide] | 0.08 nM | 29.7 nM | 19.6 nM | 403 nM
20 | C[C@H]1CN(c2ccncc2NC(=O)c2ccc(F)c(-c3c(F)cc(OC4COC4)cc3F)n2)C[C@@H](N)[C@@H]1O [Example 117, N-(4-((3R,4R,5S)-3-amino-4-hydroxy-5-methylpiperidin-1-yl)pyridin-3-yl)-6-(2,6-difluoro-4-(oxetan-3-yloxy)phenyl)-5-fluoropicolinamide] | 0.01 nM | 0.65 nM | 0.16 nM | –
21 | C[C@H]1CN(c2ccncc2NC(=O)c2ccc(F)c(-c3c(F)cc(OC4CCOCC4)cc3F)n2)C[C@@H](N)[C@@H]1O [Example 116, N-(4-((3R,4R,5S)-3-amino-4-hydroxy-5-methylpiperidin-1-yl)pyridin-3-yl)-6-(2,6-difluoro-4-(tetrahydro-2H-pyran-4-yloxy)phenyl)-5-fluoropicolinamide] | 0.01 nM | 0.58 nM | 0.2 nM | –
22 | CCOc1cc(F)c(-c2nc(C(=O)Nc3cnccc3[C@H]3C[C@@H](N)[C@H](O)[C@@H](C)C3)ccc2F)c(F)c1 [Example 226, N-(4-((1R,3R,4R,5S)-3-amino-4-hydroxy-5-methylcyclohexyl)pyridin-3-yl)-6-(4-ethoxy-2,6-difluorophenyl)-5-fluoropicolinamide] | 0.04 nM | 3.51 nM | 0.75 nM | –
